The values below are quoted from earlier work in patent publication US20050095288A1, “Decongestant and expectorant tablets” (Andrx Labs, LLC, priority 2003, published 2005).

The conditions of the series: background statement, no test described.

On to `COc1ccccc1OCC(O)CO` (stereo not shown) [Guaifenesin, 3-(2-methoxyphenoxy)-1,2-propane-diol], for which the typical plasma half-life entry is on record as “approximately one”.
